Key:
Assay in all cases: relative viability (nuclei count vs DMSO), 5 days (fraction); higher = more cells survive
CUDC-101 + Palbociclib = compound: C#Cc1cccc(Nc2ncnc3cc(OC)c(OCCCCCCC(=O)NO)cc23)c1 [CUDC-101] + CC(=O)c1c(C)c2cnc(Nc3ccc(N4CCNCC4)cn3)nc2n(C2CCCC2)c1=O [Palbociclib] (partner 0.5 µM)
In short: (§1)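 Relative viability equals treated-well nuclei counts divided by vehicle-well nuclei counts. Counts came from 4× images of lung cancer cell lines grown in 1536-well plates for 5 days after pin-tool dosing on the day after seeding. Dosing used one drug alone or a fixed anchor-drug dose plus five library-drug doses (not always all listed) in √10 steps, and values are medians of duplicate plates.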

Vandetanib + Luminespib = compound: COc1cc2/c(=N/c3ccc(Br)cc3F)nc[nH]c2cc1OCC1CCN(C)CC1 [Vandetanib] + CCNC(=O)c1noc(-c2cc(C(C)C)c(O)cc2O)c1-c1ccc(CN2CCOCC2)cc1 [Luminespib] (partner 0.01 µM)
In short: as §1

[1] = compound: C1=CC=C2C(=C1)N=C(S2)C(C#N)C3=NC(=NC=C3)NCCC4=CN=CC=C4 + CS(=O)(=O)CCNCc1ccc(-c2ccc3ncnc(Nc4ccc(OCc5cccc(F)c5)c(Cl)c4)c3c2)o1 [Lapatinib] (partner 2 µM)
In short: as §1

[2] = compound: C1=CC=C2C(=C1)N=C(S2)C(C#N)C3=NC(=NC=C3)NCCC4=CN=CC=C4 + Cc1nc(NC(=O)N2CCC[C@H]2C(N)=O)sc1-c1ccnc(C(C)(C)C(F)(F)F)c1 [Alpelisib] (partner 2 µM)
In short: as §1

Row | Cell Line | relative viability (CUDC-101 + Palbociclib; first compound 0.01 µM) | relative viability (CUDC-101 + Palbociclib; first compound 0.03162 µM) | relative viability (CUDC-101 + Palbociclib; first compound 0.1 µM) | relative viability (CUDC-101 + Palbociclib; first compound 0.3162 µM) | relative viability (CUDC-101 + Palbociclib; first compound 1 µM) | relative viability (Vandetanib + Luminespib; first compound 0.02 µM) | relative viability (Vandetanib + Luminespib; first compound 0.06325 µM) | relative viability (Vandetanib + Luminespib; first compound 0.2 µM) | relative viability (Vandetanib + Luminespib; first compound 0.6325 µM) | relative viability (Vandetanib + Luminespib; first compound 2 µM) | relative viability ([1]; first compound 0.01581 µM) | relative viability ([1]; first compound 0.05 µM) | relative viability ([1]; first compound 0.1581 µM) | relative viability ([1]; first compound 0.5 µM) | relative viability ([2]; first compound 0.01581 µM) | relative viability ([2]; first compound 0.05 µM) | relative viability ([2]; first compound 0.1581 µM) | relative viability ([2]; first compound 0.5 µM) | relative viability ([1]; first compound 0.005 µM) | relative viability ([2]; first compound 0.005 µM)
1 | NCI-H460 | 0.277 | 0.223 | 0.135 | 0.149 | 0.0952 | 0.0345 | 0.0344 | 0.0312 | 0.0333 | 0.0336 | 1.12 | 1.06 | 1.85 | 0.273 | 0.508 | 0.503 | 0.579 | 0.309 | – | –
2 | HOP-62 | 0.448 | 0.38 | 0.478 | 0.421 | 0.425 | 0.884 | 0.886 | 0.909 | 0.823 | 0.848 | 1 | 0.893 | 1.12 | 0.903 | 1.34 | 1.09 | 1.3 | 1.21 | 0.874 | 0.966
3 | NCI-H2085 | 0.438 | 0.468 | 0.47 | 0.463 | 0.466 | 0.451 | 0.384 | 0.269 | 0.478 | 0.398 | 0.737 | 0.763 | 0.891 | 0.761 | 0.875 | 0.912 | 0.959 | 0.867 | 0.83 | 0.87
4 | COR-L23 | 0.275 | 0.332 | 0.283 | 0.253 | 0.128 | 0.629 | 0.653 | 0.747 | 0.7 | 0.685 | 1.15 | 1.01 | 1.29 | 0.71 | 0.756 | 0.841 | 0.877 | 0.742 | 0.629 | 0.748
5 | HARA | 0.278 | 0.204 | 0.246 | 0.224 | 0.172 | 0.814 | 0.561 | 0.074 | 0.9 | 0.512 | 0.862 | 0.643 | 1.01 | 0.676 | 0.794 | 0.744 | 0.893 | 0.838 | 0.692 | 0.794
6 | 201T | 0.332 | 0.38 | 0.347 | 0.344 | 0.353 | 1.03 | 1.05 | 1.01 | 0.99 | 0.974 | 0.958 | 1.01 | 1.09 | 1.02 | 1.08 | 1.04 | 1.03 | 0.967 | 0.981 | 0.995
7 | EMC-BAC-2 | 0.546 | 0.514 | 0.502 | 0.502 | 0.375 | 1.15 | 1.11 | 0.216 | 1.27 | 1.07 | 0.855 | 0.826 | 1.02 | 0.879 | 0.768 | 0.686 | 0.76 | 0.67 | 0.845 | 0.566
8 | NCI-H1944 | 0.33 | 0.298 | 0.322 | 0.311 | 0.216 | 0.811 | 0.743 | 0.745 | 0.676 | 0.651 | 0.847 | 0.746 | 0.977 | 0.819 | 0.86 | 0.771 | 0.835 | 0.803 | 0.89 | 0.799
9 | NCI-H727 | 0.642 | 0.61 | 0.563 | 0.714 | 0.57 | 0.591 | 0.349 | 0.247 | 0.252 | 0.316 | 0.821 | 0.813 | 0.83 | 0.795 | 0.508 | 0.566 | 0.565 | 0.409 | 0.857 | 0.508
10 | NCI-H1993 | 0.837 | 0.656 | 0.592 | 0.618 | 0.482 | 0.951 | 0.785 | 0.538 | 0.838 | 0.721 | 0.779 | 0.824 | 0.747 | 0.809 | 0.692 | 0.645 | 0.652 | 0.747 | 0.652 | 0.671
11 | NCI-H3122 | 0.206 | 0.214 | 0.187 | 0.177 | 0.175 | 0.0842 | 0.111 | 0.0787 | 0.0959 | 0.0934 | 1 | 1.06 | 1 | 1.03 | 0.791 | 0.819 | 0.977 | 0.852 | 1.01 | 0.676
12 | NCI-H1651 | 0.548 | 0.543 | 0.497 | 0.529 | 0.493 | 1.09 | 1.01 | 0.171 | 0.901 | 0.641 | 0.697 | 1.03 | 1.11 | 0.872 | 1.07 | 1.12 | 1.11 | 0.73 | 0.76 | 0.667
13 | NCI-H1355 | 0.392 | 0.429 | 0.399 | 0.376 | 0.37 | 0.618 | 0.731 | 0.838 | 0.685 | 0.698 | 1.03 | 1 | 1.14 | 0.931 | 0.901 | 0.823 | 0.883 | 0.633 | 1.18 | 0.852
14 | NCI-H23 | 0.463 | 0.562 | 0.563 | 0.535 | 0.446 | 0.259 | 0.224 | 0.232 | 0.221 | 0.221 | 1.16 | 1.12 | 1.22 | 1.14 | 0.74 | 0.582 | 0.845 | 0.725 | – | –
15 | NCI-H2126 | 0.355 | 0.346 | 0.337 | 0.364 | 0.352 | 0.882 | 0.855 | 0.888 | 0.914 | 0.687 | 0.718 | 0.721 | 0.873 | 0.685 | 0.734 | 0.773 | 0.765 | 0.793 | 0.75 | 0.722
16 | LU99A | 0.332 | 0.391 | 0.374 | 0.425 | 0.212 | 0.231 | 0.233 | 0.273 | 0.255 | 0.256 | 1.02 | 0.886 | 1.17 | 0.976 | 0.545 | 0.522 | 0.548 | 0.536 | 0.704 | 0.509
